Experimental data published in patent US7244557B2, “Method of screening modulators of Nod1 signaling” (Regents of the University of Michigan, priority 2003, dated 2007).

Key:
Assay type in all cases: cell-based
[1] = molecular target: T1, NOD1 (Homo sapiens, UniProt Q9Y239); assay: NF-κB-dependent luciferase reporter assay, HEK293T cells expressing NOD1
T1 construct: expressed in transfected cells; host or cells: HEK293T
T1 sequence (Q9Y239 1-953): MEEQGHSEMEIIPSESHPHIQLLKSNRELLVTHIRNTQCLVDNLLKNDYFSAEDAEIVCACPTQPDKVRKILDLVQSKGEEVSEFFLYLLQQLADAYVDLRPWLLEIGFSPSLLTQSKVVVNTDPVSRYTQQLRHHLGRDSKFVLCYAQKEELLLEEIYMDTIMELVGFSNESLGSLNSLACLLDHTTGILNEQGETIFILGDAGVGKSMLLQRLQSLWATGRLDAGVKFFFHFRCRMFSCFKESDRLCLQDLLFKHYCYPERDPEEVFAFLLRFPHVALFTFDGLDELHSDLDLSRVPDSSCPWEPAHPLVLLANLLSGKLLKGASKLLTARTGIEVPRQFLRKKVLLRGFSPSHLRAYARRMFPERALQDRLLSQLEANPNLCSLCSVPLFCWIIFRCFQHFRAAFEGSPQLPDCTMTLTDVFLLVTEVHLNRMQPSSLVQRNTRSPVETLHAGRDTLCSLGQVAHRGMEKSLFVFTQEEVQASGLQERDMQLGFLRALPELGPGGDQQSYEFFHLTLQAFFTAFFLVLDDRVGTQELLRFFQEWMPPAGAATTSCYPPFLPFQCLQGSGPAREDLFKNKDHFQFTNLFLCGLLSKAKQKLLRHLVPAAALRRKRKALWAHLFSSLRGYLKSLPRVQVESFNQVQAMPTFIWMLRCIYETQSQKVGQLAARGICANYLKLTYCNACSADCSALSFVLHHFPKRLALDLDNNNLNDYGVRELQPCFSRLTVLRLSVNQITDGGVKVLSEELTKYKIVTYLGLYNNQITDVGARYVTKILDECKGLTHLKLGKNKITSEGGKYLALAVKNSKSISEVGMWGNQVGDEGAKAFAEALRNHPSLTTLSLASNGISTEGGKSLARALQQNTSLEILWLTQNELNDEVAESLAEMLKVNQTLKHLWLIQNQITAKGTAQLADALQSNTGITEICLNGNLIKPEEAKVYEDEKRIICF
Text: Reagents. LPS from S. typhimurium, intact and alkaline-detoxified LPS from E. coli O55:B5 as well as purified lipid A preparations of E. coli F583, MDP, DAP and dsRNA were obtained from Sigma-Aldrich (St. Louis, Mo.). PGN from S. aureus was from Fluka-Chemie (Buchs, Germany). Palmitoyl-Cys ((RS)-2,3-di(palmitoyloxy)-propyl)-Ala-Gly) (sBLP), was obtained from Bachem (Torrance, Calif.). The tetrameric form of the disaccharide dipeptide was described previously (Inohara et al., J. Biol. Chem. 278:5509 [2003]). iE-DAP and iQ-DAP, M3P and M4P were synthesized as described (Kitaura et al., J. Med. Chem. 25:335 [1982]) with small modification. Purification of PGN from B. subtilis 168 and C. flaccumfaciens with hydrolases, Cellosyl or recombinant AtlE (amidase domain) and the fractionation and purification of reduced B. subtilis PGN digested with Cellosyl were performed as previously described (Heilman et al., Mol. Microbiol. 24:1013 [1997]; Atrih et al., J. Bact. 181:3956 [1999]). Removal of proteins and reduction of LPS fraction. E. coli O55:B5 LPS (Sigma) was treated with proteinase K at 37° C. for 12 hr to digest contaminating proteins. To eliminate lipoproteins, LPS was subjected to modified phenol extraction with deoxycholate-containing phenol as described (Hirschfeld et al., J. Immunol. 165:618 [2000]). For reduction of carboxyl group in the LPS, the LPS was treated with 1-ethyl-3-(3-dimethylaminopropyl) carbodiimide and then reduced with NaBH4 as described (Taylor et al., Biochemistry 11:1383 [1972]). Preparation of E. coli extract. E. coli K-12 mutants were all based on the SØ864 genetic background (lacZ trp upp relA rpsL) (Neuhard and Thomassen, J. Bacteriol. 126:999). SØ874 carries a large chromosomal deletion removing the gene clusters for the biosynthesis of CA capsule and O-antigen. CLM5 is a derivative of SØ874 with a transposon insertion in the wecC gene that blocks the synthesis of ECA (Marolda et al., J. Bacteriol. 177:5539[1995]). FAM5 is a derivative of SØ874 carrying a deletion that eliminates the incorporation of heptose in the LPS core. Extracts were prepared from all of these E. coli K-12 strains and also from another E. coli K-12 strain, LCD27 YA21-6 (Obtained from Dr. Arisaka, Tokyo Institute of Technology). Bacteria were cultured overnight at 37° C. in Luria broth, killed by treatment with acetone followed by vacuum drying and finally resuspended in 10 mM HEPES. The extract was treated with 1M NaOH at 55° C. for 12 hr and neutralized with 1M HEPES (pH 7.4). The soluble fraction after centrifugation and filtration with 0.22 μm filter was applied to SUPEROSE 12 gel filtration column chromatography. Partial purification of NOD1-stimulatory molecules from E. coli and composition analyses. The amino acid composition of E. coli O55:B5 LPS was determined using AccQ·Tag amino acid analysis system (Waters, Milford, Mass.) after hydrolysis at 110° C. for 24 hr. For carbohydrate analysis, E coli K-12 YA21-6 (Ref 26) cultured overnight at 37° C. in L-broth were washed with TBS twice and incubated with TBS containing 1 mglml DNase I, RNase I and lysozyme for 37° C. for 2 hr. Acetone was added to the extracts at 50% final concentration and the insoluble fractions were washed with an excess of 75% and 100% acetone. After vacuum drying, the acetone extract was solublized with 1 M NaOH and incubated at 60° C. for 24 hr. The pH was adjusted to pH 5.0 with acetic acid and the soluble fraction was passed through SUPEROSE gel filtration column. SUPEROSE fractions with NOD1-stimulatory activity were diluted with 10 mM Tris-HCl (pH 8.8) and subjected to UnoQ column chromatography. The fractions were eluted with a linear gradient of 0–300 mM NaCl. The positive fractions were dialyzed against water and dried under vacuum. The monosaccharide composition of the fractions after TFA/methanol degradation was determined as previously described (Forsberg et al., J. Biol. Chem. 273:2747[1998]). Transfection and NF-κB Activation Assay. […]

[2] = molecular target: T2, NOD2 (Homo sapiens, UniProt Q9HC29); assay: NF-κB-dependent luciferase reporter assay, HEK293T cells expressing NOD2
T2 construct: expressed in transfected cells; host or cells: HEK293T
T2 sequence (Q9HC29 whole entry): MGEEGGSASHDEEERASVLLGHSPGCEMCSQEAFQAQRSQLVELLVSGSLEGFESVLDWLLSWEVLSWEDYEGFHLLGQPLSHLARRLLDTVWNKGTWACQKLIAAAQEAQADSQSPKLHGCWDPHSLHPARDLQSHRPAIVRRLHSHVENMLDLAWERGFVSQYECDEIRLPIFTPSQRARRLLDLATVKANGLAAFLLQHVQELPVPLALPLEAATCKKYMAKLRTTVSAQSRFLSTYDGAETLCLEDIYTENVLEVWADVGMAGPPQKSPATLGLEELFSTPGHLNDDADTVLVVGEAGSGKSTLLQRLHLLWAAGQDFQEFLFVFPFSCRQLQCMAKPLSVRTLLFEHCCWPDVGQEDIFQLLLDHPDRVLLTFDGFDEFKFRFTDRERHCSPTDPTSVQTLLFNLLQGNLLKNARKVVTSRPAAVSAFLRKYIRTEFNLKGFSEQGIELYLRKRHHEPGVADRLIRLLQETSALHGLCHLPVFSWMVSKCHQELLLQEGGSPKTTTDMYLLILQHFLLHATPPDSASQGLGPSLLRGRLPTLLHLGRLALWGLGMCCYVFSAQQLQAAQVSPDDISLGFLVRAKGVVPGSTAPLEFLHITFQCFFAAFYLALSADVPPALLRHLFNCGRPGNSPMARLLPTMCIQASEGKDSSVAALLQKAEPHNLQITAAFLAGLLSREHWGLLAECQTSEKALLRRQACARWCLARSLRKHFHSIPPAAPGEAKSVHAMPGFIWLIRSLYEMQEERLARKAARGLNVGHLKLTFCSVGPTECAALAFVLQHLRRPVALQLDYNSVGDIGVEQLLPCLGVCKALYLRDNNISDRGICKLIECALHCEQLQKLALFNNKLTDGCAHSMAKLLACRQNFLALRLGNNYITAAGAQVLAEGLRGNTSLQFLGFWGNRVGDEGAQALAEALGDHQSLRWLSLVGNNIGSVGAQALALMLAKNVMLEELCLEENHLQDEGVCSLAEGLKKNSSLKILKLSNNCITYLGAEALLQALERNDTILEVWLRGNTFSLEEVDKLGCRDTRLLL
Text: (§1) Reagents. LPS from S. typhimurium, intact and alkaline-detoxified LPS from E. coli O55:B5 as well as purified lipid A preparations of E. coli F583, MDP, DAP and dsRNA were obtained from Sigma-Aldrich (St. Louis, Mo.). PGN from S. aureus was from Fluka-Chemie (Buchs, Germany). Palmitoyl-Cys ((RS)-2,3-di(palmitoyloxy)-propyl)-Ala-Gly) (sBLP), was obtained from Bachem (Torrance, Calif.). The tetrameric form of the disaccharide dipeptide was described previously (Inohara et al., J. Biol. Chem. 278:5509 [2003]). iE-DAP and iQ-DAP, M3P and M4P were synthesized as described (Kitaura et al., J. Med. Chem. 25:335 [1982]) with small modification. Purification of PGN from B. subtilis 168 and C. flaccumfaciens with hydrolases, Cellosyl or recombinant AtlE (amidase domain) and the fractionation and purification of reduced B. subtilis PGN digested with Cellosyl were performed as previously described (Heilman et al., Mol. Microbiol. 24:1013 [1997]; Atrih et al., J. Bact. 181:3956 [1999]). Removal of proteins and reduction of LPS fraction. […] The amino acid composition of E. coli O55:B5 LPS was determined using AccQ·Tag amino acid analysis system (Waters, Milford, Mass.) after hydrolysis at 110° C. for 24 hr. […] The monosaccharide composition of the fractions after TFA/methanol degradation was determined as previously described (Forsberg et al., J. Biol. Chem. 273:2747[1998]). […]

[3] = molecular target: T3, TLR4/MD-2 (Homo sapiens, UniProt O00206+Q9Y6Y9); assay: NF-κB-dependent luciferase reporter assay, HEK293T cells expressing TLR4 with co-factor MD-2
T3 construct: expressed in transfected cells; host or cells: HEK293T
T3 sequence (O00206 24-839, species assumed): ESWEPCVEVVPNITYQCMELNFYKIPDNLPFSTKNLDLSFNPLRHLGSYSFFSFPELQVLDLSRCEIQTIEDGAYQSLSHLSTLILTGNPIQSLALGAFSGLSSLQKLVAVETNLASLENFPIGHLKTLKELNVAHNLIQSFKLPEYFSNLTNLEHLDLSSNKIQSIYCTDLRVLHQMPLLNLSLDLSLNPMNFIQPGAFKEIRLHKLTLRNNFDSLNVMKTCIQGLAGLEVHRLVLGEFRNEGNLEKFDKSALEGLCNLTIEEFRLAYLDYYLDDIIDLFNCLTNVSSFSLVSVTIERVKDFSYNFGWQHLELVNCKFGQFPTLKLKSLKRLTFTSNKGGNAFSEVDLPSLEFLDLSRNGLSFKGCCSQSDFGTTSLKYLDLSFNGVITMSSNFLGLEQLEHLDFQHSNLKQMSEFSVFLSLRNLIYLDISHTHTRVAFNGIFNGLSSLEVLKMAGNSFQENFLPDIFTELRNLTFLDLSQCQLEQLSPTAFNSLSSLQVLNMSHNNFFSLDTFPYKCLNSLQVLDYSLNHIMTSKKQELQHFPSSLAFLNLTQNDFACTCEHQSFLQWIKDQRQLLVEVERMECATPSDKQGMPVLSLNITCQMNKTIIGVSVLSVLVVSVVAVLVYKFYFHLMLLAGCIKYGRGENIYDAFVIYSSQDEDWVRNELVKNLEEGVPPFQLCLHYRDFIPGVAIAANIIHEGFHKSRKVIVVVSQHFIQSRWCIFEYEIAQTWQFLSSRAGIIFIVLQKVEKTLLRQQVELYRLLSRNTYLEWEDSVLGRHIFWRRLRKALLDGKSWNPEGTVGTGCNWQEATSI
T3 sequence (Q9Y6Y9 19-160, species assumed): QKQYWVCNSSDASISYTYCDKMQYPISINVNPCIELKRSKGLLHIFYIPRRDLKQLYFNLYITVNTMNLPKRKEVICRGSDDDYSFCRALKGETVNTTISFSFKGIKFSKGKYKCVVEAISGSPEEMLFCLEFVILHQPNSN
Text: as §1

Row | NOD1-dependent NF-κB activation (NOD1 stimulation) [1] | NOD2-dependent NF-κB activation [2] | TLR4/MD-2-dependent NF-κB activation [3] | Compound
1 | not NOD1 and NOD2 | not NOD1 and NOD2 | responded | lipid A
2 | failed to stimulate NOD1 | – | – | MurNAc-L-Ala-γ-D-Gln-L-Lys-D-Ala [M4P]
3 | failed to stimulate NOD1 | – | – | MurNAc-L-Ala-γ-D-Gln-L-Lys [M3P]

Row | Compound | NOD1-dependent NF-κB activation (NOD1 stimulation) [1] | NOD2-dependent NF-κB activation [2] | TLR4/MD-2-dependent NF-κB activation [3]
4 | N[C@H](CCC[C@H](N)C(=O)O)C(=O)O [DAP, diaminopimelic acid] | unable to stimulate NOD1 | – | –
5 | N-acetylglucosamine(GlcNAc)-N-acetyl-Muramicitol-L-Ala-γ-D-Glu-meso-DAP [GM3p] | stimulated NOD1 in a dose-dependent manner | – | –
